From patent US20260242410A1, “CRYSTALLINE FORMS OF A NEUROACTIVE STEROID” (Sage Therapeutics, Inc., priority 2022, published 2026)

Assay: Stability of the crystalline solvate form on drying, followed by XRPD
Assay type: physicochemical
Protocol: XRPD analyses were performed using a PANalytical X′pert pro with PIXcel detector (128 channels), scanning the samples between 3 and 35° 20. Solid Compound (1) was gently ground to release any agglomerates and loaded onto a multi-well plate with a Mylar polymer film to support the sample. The multi-well plate was then placed into the diffractometer and analyzed using Cu K radiation (a1 λ=1.54060 Å; a2=1.54443 Å; β=1.39225 Å; a1: a2 ratio=0.5) running in transmission mode (step size 0.0130° 20, step time 18.87s) using 40 kV/40 mA generator settings. Data were visualized and images generated using the HighScore Plus 4.7 desktop application (PANalytical, 2017). The 20 position was calibrated using alumina powder reference standard on a monthly basis.
100 mg of anhydrous Compound (1) was temperature cycled in 600 μL of acetone for 24 hours. Accordingly, 600 μL of acetone was added in 200 μL aliquots to a vile containing 100 mg of anhydrous Compound (1), to form a movable slurry. The vile was then capped, wrapped in parafilm and temperature cycled in an incubator shaker between ambient temperature and 40° C. with a 4 hour hold at each temperature. After 24 hours, the solid Compound (1) Acetone Solvate Form was isolated by centrifugation.
Approximately 200 mg of anhydrous Compound (1) was weighed into a scintillation vial and 1 mL of DMSO added to form a slurry. The slurry was then temperature cycled between ambient temperature and 40° C. in 4 hour cycles for 48 hours. After this time, the sample was dried in a 40° C. oven. On removal from the oven, the sample remained wet, so the sample was isolated by centrifuge filtration and then dried under vacuum at ambient conditions over night. After drying, the sample was reanalyzed by XRPD to be Compound (1) DMSO Solvate Form.
FIG. 4 depicts a non-normalized X-ray powder diffraction pattern for Compound (1) DMSO Solvate Form. The XRPD pattern was stable on drying under vacuum.

Structure (SMILES)	XRPD pattern stability on drying (drying under vacuum)	Crystallinity / XRPD pattern after gentle drying (72 hours gentle drying at ambient temperature (no vacuum), repreparation by temperature cycling)	Solid form obtained after complete drying (complete drying of the product)	Crystallinity / XRPD pattern after gentle drying (drying at 40° C. for 24 hours)
COC[C@@]1(O)CC[C@H]2[C@@H](CC[C@@H]3[C@@H]2CC[C@]2(C)[C@@H](C(=O)Cn4nnc(C)n4)CC[C@@H]32)C1 [Compound (1) DMSO Solvate Form]	stable			
COC[C@@]1(O)CC[C@H]2[C@@H](CC[C@@H]3[C@@H]2CC[C@]2(C)[C@@H](C(=O)Cn4nnc(C)n4)CC[C@@H]32)C1 [Compound (1) Acetone Solvate Form]		the XRPD pattern had not changed, there was a significant drop in crystallinity	produces crystalline anhydrous Compound (1)	significant loss in crystallinity, but negligible change in the XRPD pattern
